The record followed here is ChEMBL document CHEMBL1909576, “Continued exploration of biphenylsulfonamide scaffold as a platform for aggrecanase-1 inhibition” (Bioorg Med Chem Lett, 2011).

Molecules are shown by their SMILES. Some results are limits rather than exact numbers.

In test [1] the target is T1, A disintegrin and metalloproteinase with thrombospondin motifs 4 (Homo sapiens, UniProt O75173).
T1 sequence (O75173 whole entry): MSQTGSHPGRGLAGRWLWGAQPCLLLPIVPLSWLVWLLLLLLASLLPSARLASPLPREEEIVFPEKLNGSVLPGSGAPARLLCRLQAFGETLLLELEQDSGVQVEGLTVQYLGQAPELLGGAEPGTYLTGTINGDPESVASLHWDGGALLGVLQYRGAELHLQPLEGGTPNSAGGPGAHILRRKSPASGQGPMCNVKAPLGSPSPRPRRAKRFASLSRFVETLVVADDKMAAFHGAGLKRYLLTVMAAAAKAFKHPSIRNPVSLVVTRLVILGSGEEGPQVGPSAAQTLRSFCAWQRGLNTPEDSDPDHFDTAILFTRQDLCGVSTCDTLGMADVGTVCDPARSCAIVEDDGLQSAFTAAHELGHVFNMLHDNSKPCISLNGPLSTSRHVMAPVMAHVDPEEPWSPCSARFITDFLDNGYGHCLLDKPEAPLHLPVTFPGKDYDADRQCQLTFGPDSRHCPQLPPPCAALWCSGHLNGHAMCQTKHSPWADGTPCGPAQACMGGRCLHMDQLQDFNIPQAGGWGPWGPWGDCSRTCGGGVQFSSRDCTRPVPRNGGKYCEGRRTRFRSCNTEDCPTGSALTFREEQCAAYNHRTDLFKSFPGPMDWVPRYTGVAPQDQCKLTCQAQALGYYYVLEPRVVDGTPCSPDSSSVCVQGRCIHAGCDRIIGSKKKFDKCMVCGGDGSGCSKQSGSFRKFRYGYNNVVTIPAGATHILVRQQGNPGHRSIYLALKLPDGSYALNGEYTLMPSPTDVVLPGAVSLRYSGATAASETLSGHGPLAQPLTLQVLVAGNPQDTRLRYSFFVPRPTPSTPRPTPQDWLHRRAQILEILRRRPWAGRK
Description: Inhibition of aggrecanase-1.

The target in another test is Collagenase 3 (Homo sapiens, UniProt P45452). Briefly: Inhibition of MMP13.

Turning to `CC(C)[C@@H](NS(=O)(=O)c1ccc(-c2ccc(OCC3CCCCC3)cc2)cc1)C(=O)O`, the half-inhibitory concentration (IC50) in test [1] was above 75 µM.

In turn, `CC(C)[C@@H](NS(=O)(=O)c1ccc(-c2cccc(C(N)=O)c2)cc1)C(=O)O` gave an IC50 in test [1] of 8.4 µM. Same read-out and setting: to `CC(C)[C@@H](NS(=O)(=O)c1ccc(-c2ccc(OS(=O)(=O)c3ccccc3)cc2)cc1)C(=O)O` belongs 8.2 µM. For `CC(C)[C@@H](NS(=O)(=O)c1ccc(-c2ccc(OCc3cccc(F)c3)cc2)cc1)C(=O)O`, the 50% inhibitory concentration (IC50) in test [1] was determined as 2.6 µM; against Collagenase 3, 0.0022 µM. The like results for `COC(=O)c1cccc(COc2ccc(-c3ccc(S(=O)(=O)N[C@@H](C(=O)O)C(C)C)cc3)cc2)c1` were, in that order, 0.76 µM and 0.0026 µM. In the case of `CC(C)[C@@H](NS(=O)(=O)c1ccc(-c2cccc(C#N)c2)cc1)C(=O)O`, in test [1], the IC50 is 40 µM. For the compound `Cc1cc(COc2ccc(-c3ccc(S(=O)(=O)N[C@@H](C(=O)O)C(C)C)cc3)cc2)ccn1`, the IC50 in test [1] was determined as 2.4 µM; against Collagenase 3, 0.0007 µM. `CC(=O)Nc1cccc(-c2ccc(S(=O)(=O)N[C@@H](C(=O)O)C(C)C)cc2)c1` returned a half-maximal inhibitory concentration (IC50) in test [1] of 20 µM. With `CC(C)[C@@H](NS(=O)(=O)c1ccc(-c2ccc(OCc3cccc(O)c3)cc2)cc1)C(=O)O`, the IC50 is 3.7 µM in test [1] and 4 µM on Collagenase 3. `CNC(=O)Oc1ccc(-c2ccc(S(=O)(=O)N[C@@H](C(=O)O)C(C)C)cc2)cc1` gave a 50% inhibitory concentration (IC50) in test [1] of 50 µM. Take `CC(C)[C@@H](NS(=O)(=O)c1ccc(-c2ccc(OCc3cccc(C(F)(F)F)n3)cc2)cc1)C(=O)O`: the 50% inhibitory concentration (IC50) in test [1] amounted to 4.7 µM; at Collagenase 3 it was 4.3 µM. The like results for `CC(C)[C@@H](NS(=O)(=O)c1ccc(-c2ccc(OCc3cccc4ccccc34)cc2)cc1)C(=O)O` were, in that order, 1.4 µM and 0.0071 µM. `CC(C)[C@@H](NS(=O)(=O)c1ccc(-c2ccc(OCc3cccnc3)cc2)cc1)C(=O)O` returned an IC50 in test [1] of 30 µM. The same measure, in the same setting: then `CC(C)[C@@H](NS(=O)(=O)c1ccc(-c2ccc(OCc3ccc4ccccc4n3)cc2)cc1)C(=O)O`, with 10.6 µM.

Take `CC(C)[C@@H](NS(=O)(=O)c1ccc(-c2ccc(Oc3ccccc3)cc2)cc1)C(=O)O`: half-maximal inhibition in test [1] (IC50) was put at 13.2 µM. Still for that read-out and setting: then `CC(C)[C@@H](NS(=O)(=O)c1ccc(-c2ccc(CNC(=O)c3ccccc3)cc2)cc1)C(=O)O`, with 100 µM. The same measure, in the same setting: to `CC(C)[C@@H](NS(=O)(=O)c1ccc(-c2cccc(CN)c2)cc1)C(=O)O` belongs 7.2 µM.

As to `CC(C)[C@@H](NS(=O)(=O)c1ccc(-c2cccc(CO)c2)cc1)C(=O)O`, half-maximal inhibition in test [1] (IC50) required 2.1 µM. At Collagenase 3, `CC(C)[C@@H](NS(=O)(=O)c1ccc(-c2ccc(OCc3ccccc3)cc2)cc1)C(=O)O` had an IC50 of 0.0056 µM.

Take `CC(=O)Nc1ccc(-c2ccc(S(=O)(=O)N[C@@H](C(=O)O)C(C)C)cc2)cc1`: in test [1], inhibition was half-maximal at 100 µM (IC50). In test [1], `CC(C)[C@@H](NS(=O)(=O)c1ccc(-c2ccc(OC(N)=O)cc2)cc1)C(=O)O` gave an IC50 of 4.1 µM. In turn, `Cc1cc(COc2ccc(-c3ccc(S(=O)(=O)N[C@@H](C(=O)O)C(C)C)cc3)cc2)c2ccccc2n1` yielded a 50% inhibitory concentration (IC50) against Collagenase 3 of 0.0096 µM.

`CC(C)[C@@H](NS(=O)(=O)c1ccc(-c2ccc(OCc3ccccn3)cc2)cc1)C(=O)O` yielded an IC50 in test [1] of 33 µM. `CC(=O)N(C)Cc1ccc(-c2ccc(S(=O)(=O)N[C@@H](C(=O)O)C(C)C)cc2)cc1` had an IC50 in test [1] above 200 µM. As to `CC(C)[C@@H](NS(=O)(=O)c1ccc(-c2ccc(OCc3ccc4ccccc4c3)cc2)cc1)C(=O)O`, the IC50 against Collagenase 3 came to 0.0014 µM.

For `CC(C)[C@@H](NS(=O)(=O)c1ccc(-c2ccc(OC(=O)Nc3ccccc3)cc2)cc1)C(=O)O`, the half-maximal inhibitory concentration (IC50) in test [1] is 5.6 µM. The same measure, in the same setting: to `CC(C)[C@@H](NS(=O)(=O)c1ccc(-c2ccc(CO)cc2)cc1)C(=O)O` belongs 15 µM; to `CC(C)[C@@H](NS(=O)(=O)c1ccc(-c2ccc(OC(=O)NCc3ccccc3)cc2)cc1)C(=O)O`, 25 µM. The same measure, in the same setting: to `CC(=O)NCc1cccc(-c2ccc(S(=O)(=O)N[C@@H](C(=O)O)C(C)C)cc2)c1` belongs above 200 µM.
